Assays:
[1] = tested on: stable HCV 1b RLuc replicon cells (genotype 1b Con1 replicon); assay: HCV genotype 1b RLuc replicon reporter assay; type: cell-based; details: Hepatitis C virus; stable genotype 1b Con1 RLuc replicon cells, 72 hours
Method in brief: (§1)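 EC50 derived by non-linear regression of Renilla luciferase signal measured in lysates 72 h after adding 3-fold serial compound dilutions. Replicons: stable genotype 1b Con1 cells; transient Huh-Lunet transfections of NS5A chimeras—4a ED43 or 3a S52 in Con1, 2b MD2b-1 (M31) in JFH-1.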

[2] = tested on: stable HCV 1a RLuc replicon cells (genotype 1a H77 replicon); assay: HCV genotype 1a RLuc replicon reporter assay; type: cell-based; details: Hepatitis C virus; stable genotype 1a H77 RLuc replicon cells, 72 hours
[3] = tested on: stable HCV 2a JFH-1 Rluc replicon cells (L31 present in NS5A); assay: HCV genotype 2a JFH-1 RLuc replicon reporter assay; type: cell-based; details: Hepatitis C virus, 72 h, read-out: 2a JFH (nM)
[4] = tested on: NS5A chimeric genotype 2a JFH-1 replicon with genotype 2a J6 strain NS5A gene (M31); assay: HCV genotype 2a J6 NS5A chimeric replicon assay, transient (t); type: cell-based; details: Hepatitis C virus, 72 h, read-out: 2a J6 (t) (nM)
[5] = tested on: NS5A chimeric genotype 2a JFH-1 replicon with genotype 2b MD2b-1 strain NS5A gene (M31); assay: HCV genotype 2b NS5A chimeric replicon assay, transient (t); type: cell-based; details: Hepatitis C virus, 72 h, read-out: 2b (t) (nM)
Method in brief: as §1

[6] = IV and PO single dose pharmacokinetic studies in SD rats; type: in vivo; details: Sprague-Dawley, rat, plasma, male SD rats, IV infusion 1 mg/kg, oral gavage 2 mg/kg, read-out: Rat % F
Description: IV and PO Single Dose Pharmacokinetic Studies in SD Rats: The pharmacokinetics of selected compounds was characterized in male Sprague-Dawley (SD) rats (250-300 g). In this study, two groups of naïve purebred SD rats (N=3 per group, fasted over night) received the selected compound either as an intravenous (IV) infusion (1 mg/kg over 30 minutes) via the jugular vein or by oral gavage (2 mg/kg). The intravenous (IV) dosing vehicle was 5% ethanol, 35% polyethylene glycol 400 (PEG 400) and 60% water pH 2.0. The oral dosing vehicle was 5% ethanol, 55% PEG 400 and 40% citrate buffer pH 2.2.
Serial blood samples (approximately 0.3 mL each) were collected from jugular vein or other suitable vein at specified time points. For the IV infusion group, the blood samples were collected predose and at 0.25, 0.48, 0.58, 0.75, 1.5, 3, 6, 8, 12 and 24 hours after the start of infusion. For the oral group, the blood samples were collected predose and at 0.25, 0.50, 1, 2, 4, 6, 8, 12 and 24 hours after dosing. The blood samples were collected into Vacutainer™ tubes containing EDTA-K3 as the anti-coagulant and were centrifuged at approximately 4° C. to obtain plasma. The plasma samples were stored at −20° C. until analysis by LC/MS/MS.
A bioanalytical method utilizing high performance liquid chromatography coupled to tandem mass spectrometry (LC/MS/MS) was developed for analysis of the selected compound in rat plasma. Detection was performed using selected reaction monitoring (SRM); Ions representing the precursor (M+H)^+ species was selected in quadrupole 1 (Q1) and collided with argon gas in the collision cell (Q2) to generate specific product ion, which was subsequently monitored by quadrupole 3 (Q3). Standard curve and quality control samples were prepared in male rat plasma and processed in the same way as the test samples to generate quantitative data.
Pharmacokinetic parameters were generated using non-compartmental pharmacokinetic analysis (Phoenix WinNonlin, version 6.3). Values below the lower limit of quantification (LLOQ) were assigned a value of zero if predose and treated as missing thereafter. Area under the curve (AUC) was calculated using the linear trapezoidal rule. The oral bioavailability (% F) was determined by comparison of the area under the curve (AUC) of the compound and/or a metabolite generated in plasma following oral administration to that generated following intravenous administration.

[7] = tested on: L31V/Y93H in genotype 1b NS5A replicon; assay: Resistance mutant replicon assay, genotype 1b NS5A L31V/Y93H; type: cell-based, HCV; details: Hepatitis C virus, read-out: 1b L31V/Y93H (nM)
Description: (§2) Evaluation of cell-based anti-HCV activity: Antiviral potency (EC50) was determined using a Renilla luciferase (RLuc)-based HCV replicon reporter assay. To perform the assay for genotype 1 and 2a JFH-1, stable HCV 1a RLuc replicon cells (harboring a dicistronic genotype 1a H77 replicon that encodes a RLuc reporter), stable HCV lb RLuc replicon cells (harboring a dicistronic genotype 1b Conl replicon that encodes a RLuc reporter), or stable HCV 2a JFH-1 Rluc replicon cells (harboring a dicistronic genotype 2a JFH-1 replicon that encodes a RLuc reporter; with L31 present in NS5A) were dispensed into 384-well plates for EC50 assays. To perform the assay for genotype 2a (with M31 present in NS5A) or 2b, NS5A chimeric genotype 2a JFH-1 replicons that encodes a RLuc-Neo reporter and either genotype 2a J6 strain NS5A gene or genotype 2b MD2b-1 strain NS5A gene (both with M31 present) respectively, were either transiently transfected (t) into Huh-Lunet cells or were established as stably replicating replicon cells (s) is provided. Either cells were dispensed into 384-well plates for EC50 assays. To perform the assay for genotype 3 and 4, NS5A chimeric genotype 1b Conl replicons that encodes a Pi-RLuc reporter and either genotype 3a S52 strain NS5A gene or genotype 4a ED43 strain NS5A gene respectively, were transiently transfected (t) into Huh-Lunet cells, which were subsequently dispensed into 384-well plates. Compounds were dissolved in DMSO at a concentration of 10 mM and diluted in DMSO either manually or using an automated pipeting instrument. Serially 3-fold diluted compounds were either manually mixed with cell culture media and added to the seeded cells or directly added to the cells using an automated instrument. DMSO was used as a negative (solvent; no inhibition) control, and the protease inhibitor ITMN-191 was included at a concentration >100×EC50 as a positive control. 72 hours later, cells were lysed and Renilla luciferase activity quantified as recommended by the manufacturer (Promega-Madison, Wis.). Non-linear regression was performed to calculate EC50 values.
(§3) To determine the antiviral potency (EC50) against resistance mutants, resistance mutations, including M28T, Q30R, Q30H, Q30E, L31M, Y93C, Y93H, and Y93N in genotype 1a NS5A, Y93H and L31V/Y93H in genotype 1b NS5A, and Y93H for in genotype 3a NS5A, were introduced individually into either 1a Pi-Rluc or 1b Pi-Rluc replicons by site directed mutagenesis. Replicon RNA of each resistant mutant was transiently transfected into Huh-7-derived cured-51 cells and antiviral potency was determined on these transfected cells as described above.

[8] = tested on: Q30R in genotype 1a NS5A replicon; assay: Resistance mutant replicon assay, genotype 1a NS5A Q30R; type: cell-based, HCV; details: Hepatitis C virus, read-out: 1a Q30R (nM)
Description: as §2, §3

[9] = tested on: Y93H in genotype 1a NS5A replicon; assay: Resistance mutant replicon assay, genotype 1a NS5A Y93H; type: cell-based, HCV; details: Hepatitis C virus, read-out: 1a Y93H (nM)
Method in brief: (§4)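 Renilla luciferase signal after 72 h compound exposure gave EC50 via non-linear regression. Cells were Huh-7-derived cured-51 transiently transfected with replicon RNA carrying the NS5A mutation introduced by site-directed mutagenesis into 1a or 1b Pi-RLuc replicons.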

[10] = tested on: Y93N in genotype 1a NS5A replicon; assay: Resistance mutant replicon assay, genotype 1a NS5A Y93N; type: cell-based, HCV; details: Hepatitis C virus, read-out: 1a Y93N (nM)
Method in brief: as §4

[11] = tested on: Q30E in genotype 1a NS5A replicon; assay: Resistance mutant replicon assay, genotype 1a NS5A Q30E; type: cell-based, HCV; details: Hepatitis C virus, read-out: 1a Q30E (nM)
Method in brief: as §4

[12] = tested on: Y93H in genotype 3a NS5A replicon; assay: Resistance mutant replicon assay, genotype 3a NS5A Y93H; type: cell-based, HCV; details: Hepatitis C virus, read-out: 3a Y93H (nM)
Method in brief: as §4

[13] = tested on: NS5A chimeric genotype 2a JFH-1 replicon with genotype 2b MD2b-1 strain NS5A gene (M31); assay: HCV genotype 2b NS5A chimeric replicon assay, stable (s); type: cell-based; details: Hepatitis C virus, 72 h, read-out: 2b (s) (nM)
[14] = tested on: NS5A chimeric genotype 1b Con1 replicon with genotype 3a S52 strain NS5A gene; assay: HCV genotype 3a NS5A chimeric replicon assay; type: cell-based; details: Hepatitis C virus, 72 h, read-out: 3a (nM)
Method in brief: as §1

[15] = tested on: NS5A chimeric genotype 1b Con1 replicon with genotype 4a ED43 strain NS5A gene; assay: HCV genotype 4a NS5A chimeric replicon assay; type: cell-based; details: Hepatitis C virus, 72 h, read-out: 4a (s) (nM)

Row | SMILES | EC50 [1] [nM] | EC50 [2] [nM] | EC50 [3] [nM] | EC50 [4] [nM] | EC50 [5] [nM] | bioavailability [6] [%] | EC50 [7] [nM] | EC50 [8] [nM] | EC50 [9] [nM] | EC50 [10] [nM] | EC50 [11] [nM] | EC50 [12] [nM] | EC50 [13] [nM] | EC50 [14] [nM] | EC50 [15] [nM]
1 | COC(=O)N[C@H](C(=O)N1[C@@H](C)CC[C@H]1c1ncc(-c2ccc3c(c2)COc2cc4c(ccc5nc([C@@H]6CCCN6C(=O)[C@@H](NC(=O)OC)C6CCOCC6)[nH]c54)cc2-3)[nH]1)C(C)C [Comp 14, reference compound] | 0.025 | 0.025 | 0.01 | 0.053 | 0.036 | 6.88 | 0.13 | 1.2 | 3.66 | 1.75 |  |  |  |  | 
2 | CC[C@H]1C[C@@H](c2nc3ccc4cc5c(cc4c3[nH]2)OCc2cc(-c3cnc([C@@H]4CC[C@H](C)N4C(=O)[C@@H](NC(=O)OC)C(C)C)[nH]3)ccc2-5)N(C(=O)[C@@H](NC(=O)OC)C2CCOCC2)C1 [Comp 1, reference compound] | 0.027 | 0.018 |  |  |  | 9.9 | 0.971 |  |  | 2.05 | 0.319 | 8.07 |  |  | 
3 | COC(=O)N[C@H](C(=O)N1[C@@H](C)CC[C@H]1c1ncc(-c2ccc3c(c2)COc2cc4c(ccc5nc([C@@H]6CC[C@H](C)N6C(=O)[C@@H](NC(=O)OC)C6CCOCC6)[nH]c54)cc2-3)[nH]1)C1CCOCC1 [Comp 6, reference compound] | 0.051 | 0.024 | 0.012 | 0.012 | 0.092 |  |  | 0.042 | 0.442 |  | 0.101 | 0.252 | 0.038 | 0.075 | 0.014
4 | COC(=O)N[C@H](C(=O)N1[C@@H](C)CC[C@H]1c1ncc(-c2ccc3c(c2)COc2cc4c(ccc5nc([C@@H]6CC[C@H](C)N6C(=O)[C@@H](NC(=O)OC)[C@H]6CCCOC6)[nH]c54)cc2-3)[nH]1)C(C)C [Example AI, Methyl{(1S)-2-[(2S,5S)-2-methyl-5-(9-{2-[(2S,5S)-1-{(2S)-2-[(methoxycarbonyl)amino]-3-methylbutanoyl}-5-methylpyrrolidin-2-yl]-1H-imidazol-5-yl}-1,11-dihydroisochromeno[4′,3′:6,7]naphtho[1,2-d]imidazol-2-yl)pyrrolidin-1-yl]-2-oxo-1-[(3R)-tetrahydro-2H-pyran-3-yl]ethyl}carbamate] | 0.018 | 0.014 | 0.017 | 0.041 |  |  | 21.4 | 0.208 |  | 4.05 | 2.11 | 2.84 | 0.058 | 0.028 | 0.012
5 | COC(=O)N[C@H](C(=O)N1[C@@H](C)CC[C@H]1c1ncc(-c2ccc3c(c2)COc2cc4c(ccc5nc([C@@H]6CC[C@H](C)N6C(=O)[C@@H](NC(=O)OC)[C@@H]6CCCOC6)[nH]c54)cc2-3)[nH]1)C(C)C [Example AJ, Methyl{(1S)-2-[(2S,5S)-2-methyl-5-(9-{2-[(2S,5S)-1-{(2S)-2-[(methoxycarbonyl)amino]-3-methylbutanoyl}-5-methylpyrrolidin-2-yl]-1H-imidazol-5-yl}-1,11-dihydroisochromeno[4′,3′:6,7]naphtho[1,2-d]imidazol-2-yl)pyrrolidin-1-yl]-2-oxo-1-[(3S)-tetrahydro-2H-pyran-3-yl]ethyl}carbamate] | 0.021 | 0.016 | 0.019 | 0.059 |  |  | 44 | 0.16 |  | 4.3 | 2.7 | 3.73 | 0.057 | 0.035 | 0.018
6 | COC(=O)N[C@H](C(=O)N1[C@@H](C)CC[C@H]1c1ncc(-c2ccc3c(c2)COc2cc4c(ccc5nc([C@@H]6C[C@@H]7CCC[C@@H]7N6C(=O)[C@@H](NC(=O)OC)C6CCOCC6)[nH]c54)cc2-3)[nH]1)C(C)C [Comp 10, reference compound] | 0.024 | 0.015 |  | 0.024 |  |  | 0.024 | 0.123 |  | 3.74 | 0.716 | 21.8 |  |  | 21.8
7 | CC[C@H](C)[C@H](NC(=O)OC)C(=O)N1[C@H](c2ncc(-c3ccc4c(c3)COc3cc5c(ccc6nc([C@@H]7CC[C@H](C)N7C(=O)[C@@H](NC(=O)OC)C7CCOCC7)[nH]c65)cc3-4)[nH]2)C[C@@H]2CCC[C@@H]21 [Comp 9, reference compound] | 0.034 | 0.028 |  |  |  | 0.571 |  | 0.26 | 3.5 | 10.6 |  | 40.9 |  |  | 40.9
